Assays:
[1] = Blood serum stability in mouse serum; type: in vitro ADME
Method: (§1) The samples were incubated at 37° C. for 0, 1, 2, 4, and 24 hours. After each of the time points, an aliquot of 20 μl was taken from the samples and quenched with 60 μl of 75:25:0.1 MeOH:acetonitrile:formic acid. After quenching, all samples were held at −20° C. for 1 hour and further centrifuged at 14000 rpm for 15 mins. The supernatant was transferred to a fresh vial and stored at −20° C. until analysis. Samples were analyzed using LC-MS/MS on Agilent 6530 Q-TOF mass spectrometer connected to an Agilent 1290 UPLC. 3 μL of samples were injected onto a Waters BEH C18 Column (2.1×50 mm, 1.7 μm) maintained at 60° C. […] The total run time is 9.5 min.

[2] = Blood serum stability in human serum; type: in vitro ADME; conditions: 37° C.
Method: as §1

Cathepsin B = Cathepsin B (Homo sapiens, UniProt P07858); assay: Cathepsin B cleavage of linkers; type: biochemical; conditions: Cathepsin B buffer pH 5.5, 37° C.
Method: The following procedure was used for testing the cathepsin B cleavage of linkers.
7.5 μL of test compound (0.5 mM in DMSO) was transferred to individual tube containing 135 μl of Cathepsin B buffer (25 mM Sodium Acetate, 1 mM EDTA, 1 mM DTT, pH 5.5) and the digestion was started by the addition of 7.5 μl of the diluted Cathepsin B enzyme (Activated, 1.45 μM, 0.1 units). The samples were incubated at 37° C. for 24 h. After 24 h, a 20 μL aliquot was taken and quenched with 80 μL of 75:25:0.1 MeOH:acetonitrile:formic acid. Negative control was also included, without the addition of Cathepsin B. A control compound (structure below) was digested similarly and included as positive control. After quenching, all samples were held at −20° C. for 1 h and further centrifuged at 14,000 rpm for 5 min. The supernatant was transferred to a fresh tube and put in an UPLC autosampler for analysis, per the procedure of the preceding example.
In the above structure, “Tub” denotes a tubulysin analog (Cheng et al., U.S. Pat. No. 8,394,922 B2 (2013). The valine-citrulline (Val-Cit) dipeptide is a known substrate for cathepsin B.

Structure (SMILES): CCCCOc1nc(N)c2nc(O)n(Cc3ccc(CN(CCCC)C(=O)OCc4ccc(NC(=O)[C@H](CCCNC(N)=O)NC(=O)[C@@H](NC(=O)[C@H](CCC(=O)O)NC(=O)CCCCCN5C(=O)C=CC5=O)C(C)C)cc4)cc3)c2n1 [Compound B]
- Stability in Mouse Serum (% cleaved after 24 hours) ([1]; mouse serum, 37° C., 24 hours): 50 % cleaved
- Stability in mouse serum (in words) ([1]; text summary of Table C): unstable in mouse serum
- Stability in Human Serum (% cleaved after 24 hours) [2]: 0 % cleaved
- Cathepsin B Cleavage (% cleaved after 24 hours) (Cathepsin B): 100 % cleaved

Source: patent publication US11911483B2, “Modified self-immolating moieties for use in prodrugs and conjugates and methods of using and making” (BRISTOL-MYERS SQUIBB COMPANY, priority 2018, dated 2024)
